Results on ten compounds are retold here after ChEMBL document CHEMBL1121730, “beta-Adrenergic blocking agents. alpha- and gamma-methyl(aryloxy)propanolamines” (J Med Chem, 1981).

For the experiment, the target named is Adrenergic receptor beta (Rattus norvegicus, UniProt P18090+P10608+P26255). As to the kind of experiment: Binding affinity against Beta adrenergic receptor in C6-2B astrocytoma cells, using [125I]-iodohydroxybenzylpindolol-benzylpindolol([125I]-HYP). Type of experiment: cell-based.
What is called Kd is the concentration at which binding is half-saturated. `C=CCc1ccccc1OC(C)C(O)CNC(C)(C)C` (stereo not given) displayed a Kd of 15 nM.
Then `Cc1ccc(OC(C)C(O)CNC(C)C)cc1C` (stereo not given), with 200 nM.
The result for `C=CCc1ccccc1OC(C)C(O)CNC(C)C` (stereo not given) reads 50 nM; that for `CC(Oc1cccc2ccccc12)C(O)CNC(C)(C)C` (stereo not given), 5 nM; that for `CCc1ccc(OC(C)C(O)CNC(C)C)cc1` (stereo not given), 2000 nM.
Then `CC(Oc1ccccc1)C(O)CNC(C)(C)C` (stereo not given), with 300 nM; and `CCc1ccc(OC(C)C(O)CNC(C)(C)C)cc1` (stereo not given), with 2000 nM; and `CC(C)NCC(O)C(C)Oc1ccc(Cl)c(Cl)c1` (stereo not given), with 500 nM.
For the compound `CC(C)NCC(O)C(C)Oc1cccc2ccccc12` (stereo not given), the Kd is 40 nM.
Then `Cc1ccc(OC(C)C(O)CNC(C)(C)C)cc1C` (stereo not given), with 200 nM.
